According to ChEMBL document CHEMBL3232814, “Synthesis and anticancer structure activity relationship investigation of cationic anthraquinone analogs” (2014):

Columns and labels:
Assay type in all cases: functional
[1] = Growth inhibition of human NCI60 cells assessed as cell growth; design: concentration or dose not given beside the values
[2] = Growth inhibition of human LOXIMVI cells; conditions: LOX IMVI
Malme-3M = assay: Growth inhibition of human MALME-3M cells; conditions: for CC50: read-out: LC50 (the source's name)
M14 = assay: Growth inhibition of human M14 cells; conditions: for CC50: read-out: LC50 (the source's name)
MDA-MB-435 = assay: Growth inhibition of human MDA-MB-435 cells; conditions: for CC50: read-out: LC50 (the source's name)
SK-MEL-2 = assay: Growth inhibition of human SK-MEL-2 cells; conditions: for CC50: read-out: LC50 (the source's name)
SK-MEL-28 = assay: Growth inhibition of human SK-MEL-28 cells; conditions: for CC50: read-out: LC50 (the source's name)
SK-MEL-5 = assay: Growth inhibition of human SK-MEL-5 cells
[3] = Growth inhibition of human UACC257 cells; conditions: for GI50: UACC-257; for CC50: UACC-257, read-out: LC50 (the source's name)
[4] = Growth inhibition of human UACC62 cells; conditions: for GI50: UACC-62; for CC50: UACC-62, read-out: LC50 (the source's name)
COLO 205 = assay: Growth inhibition of human COLO205 cells; conditions: for CC50: read-out: LC50 (the source's name)
[5] = Growth inhibition of human HCC2998 cells; conditions: for GI50: HCC 2998; for CC50: HCC 2998, read-out: LC50 (the source's name)
HCT-116 = assay: Growth inhibition of human HCT116 cells; conditions: for CC50: read-out: LC50 (the source's name)
[6] = Growth inhibition of human HCT15 cells; conditions: for GI50: HCT-15; for CC50: HCT-15, read-out: LC50 (the source's name)
HT-29 = assay: Growth inhibition of human HT-29 cells
KM12 = assay: Growth inhibition of human KM12 cells; conditions: for CC50: read-out: LC50 (the source's name)
SW-620 = assay: Growth inhibition of human SW620 cells; conditions: for CC50: read-out: LC50 (the source's name)
A549 = assay: Growth inhibition of human A549 cells; conditions: for CC50: read-out: LC50 (the source's name)
[7] = Growth inhibition of human EKVX cells; conditions: for CC50: read-out: LC50 (the source's name)
HOP-62 = assay: Growth inhibition of human HOP62 cells; conditions: for CC50: read-out: LC50 (the source's name)
[8] = Growth inhibition of human HOP92 cells; conditions: for GI50: HOP-92; for CC50: HOP-92, read-out: LC50 (the source's name)
NCI-H226 = assay: Growth inhibition of human NCI-H226 cells; conditions: read-out: LC50 (the source's name)
NCI-H23 = assay: Growth inhibition of human NCI-H23 cells; conditions: for CC50: read-out: LC50 (the source's name)
NCI-H460 = assay: Growth inhibition of human NCI-H460 cells; conditions: for CC50: read-out: LC50 (the source's name)
NCI-H522 = assay: Growth inhibition of human NCI-H522 cells; conditions: for CC50: read-out: LC50 (the source's name)
SF-268 = assay: Growth inhibition of human SF268 cells; conditions: for CC50: read-out: LC50 (the source's name)
[9] = Growth inhibition of human SF295 cells; conditions: SF-295
[10] = Growth inhibition of human SF539 cells; conditions: for GI50: SF-539; for CC50: SF-539, read-out: LC50 (the source's name)
SNB-19 = assay: Growth inhibition of human SNB19 cells
SNB-75 = assay: Growth inhibition of human SNB75 cells; conditions: for CC50: read-out: LC50 (the source's name)
U-251 = assay: Growth inhibition of human U251 cells
Staphylococcus aureus = assay: Antimicrobial activity against Staphylococcus aureus ATCC 25923 after 12 to 18 hrs by 2-fold serial dilution method

C[n+]1nn(-c2ccccc2)c2c1C(=O)c1ccccc1C2=O.[Cl-]
Activity [1]: -10.18% | GI50 [2]: 1160 nM | CC50 ([2]; read-out: LC50 (the source's name)): 5550 nM | GI50 (Malme-3M): 210 nM | CC50 (Malme-3M): 650 nM | GI50 (M14): 200 nM | CC50 (M14): 550 nM | GI50 (MDA-MB-435): 200 nM | CC50 (MDA-MB-435): 580 nM | GI50 (SK-MEL-2): 2180 nM | CC50 (SK-MEL-2): 6440 nM | GI50 (SK-MEL-28): 1190 nM | CC50 (SK-MEL-28): 6470 nM | GI50 (SK-MEL-5): 180 nM | LC50 (lethal concentration 50) (SK-MEL-5): 550 nM | GI50 [3]: 1700 nM | CC50 [3]: 4490 nM | GI50 [4]: 1090 nM | CC50 [4]: 5230 nM | GI50 (COLO 205): 190 nM | CC50 (COLO 205): 620 nM | GI50 [5]: 340 nM | CC50 [5]: 3690 nM | GI50 (HCT-116): 320 nM | CC50 (HCT-116): 1500 nM | GI50 [6]: 1290 nM | CC50 [6]: 6370 nM | GI50 (HT-29): 400 nM | LC50 (HT-29): > 100000 nM | GI50 (KM12): 820 nM | CC50 (KM12): 9300 nM | GI50 (SW-620): 550 nM | CC50 (SW-620): 3840 nM | GI50 (A549): 350 nM | CC50 (A549): 5460 nM | GI50 [7]: 1890 nM | CC50 [7]: 12600 nM | GI50 (HOP-62): 760 nM | CC50 (HOP-62): 5570 nM | GI50 [8]: 4170 nM | CC50 [8]: 9150 nM | CC50 (NCI-H226): 5300 nM | GI50 (NCI-H23): 980 nM | CC50 (NCI-H23): 6540 nM | GI50 (NCI-H460): 300 nM | CC50 (NCI-H460): 4230 nM | GI50 (NCI-H522): 11500 nM | CC50 (NCI-H522): 7740 nM | GI50 (SF-268): 1640 nM | CC50 (SF-268): > 100000 nM | GI50 [9]: 540 nM | LC50 (concentration killing 50% of cells) [9]: 4970 nM | GI50 [10]: 1090 nM | CC50 [10]: 4720 nM | GI50 (SNB-19): 1070 nM | LC50 (SNB-19): 4340 nM | GI50 (SNB-75): 640 nM | CC50 (SNB-75): 5870 nM | GI50 (U-251): 1260 nM | LC50 (U-251): 4330 nM | MIC (Staphylococcus aureus): 8 µg/mL

COc1ccc(-n2n[n+](C)c3c2C(=O)c2ccccc2C3=O)cc1.O=S(=O)([O-])C(F)(F)F
Activity [1]: -24.7% | GI50 [2]: 1240 nM | GI50 (Malme-3M): 240 nM | CC50 (Malme-3M): 2110 nM | GI50 (M14): 210 nM | CC50 (M14): 880 nM | GI50 (MDA-MB-435): 190 nM | CC50 (MDA-MB-435): 680 nM | GI50 (SK-MEL-2): 2050 nM | CC50 (SK-MEL-2): > 100000 nM | GI50 (SK-MEL-28): 1130 nM | CC50 (SK-MEL-28): 6520 nM | GI50 (SK-MEL-5): 160 nM | LC50 (lethal concentration 50) (SK-MEL-5): 610 nM | GI50 [3]: 1450 nM | CC50 [3]: 5520 nM | GI50 [4]: 1010 nM | CC50 [4]: 6160 nM | GI50 (COLO 205): 230 nM | CC50 (COLO 205): 960 nM | GI50 [5]: 450 nM | CC50 [5]: 4720 nM | GI50 (HCT-116): 370 nM | CC50 (HCT-116): > 100000 nM | GI50 [6]: 1230 nM | CC50 [6]: 7170 nM | GI50 (HT-29): 380 nM | LC50 (HT-29): > 100000 nM | GI50 (KM12): 970 nM | CC50 (KM12): 6240 nM | GI50 (SW-620): 380 nM | CC50 (SW-620): 5330 nM | GI50 (A549): 330 nM | CC50 (A549): > 100000 nM | GI50 [7]: 2420 nM | CC50 [7]: 33000 nM | GI50 (HOP-62): 980 nM | CC50 (HOP-62): 5140 nM | GI50 [8]: 3470 nM | CC50 [8]: > 100000 nM | GI50 (NCI-H23): 1050 nM | CC50 (NCI-H23): > 100000 nM | GI50 (NCI-H460): 300 nM | CC50 (NCI-H460): 6320 nM | GI50 (NCI-H522): 2050 nM | CC50 (NCI-H522): 18200 nM | GI50 (SF-268): 1720 nM | CC50 (SF-268): > 100000 nM | GI50 [9]: 630 nM | LC50 (concentration killing 50% of cells) [9]: 5250 nM | GI50 [10]: 1280 nM | CC50 [10]: 5600 nM | GI50 (SNB-19): 1010 nM | LC50 (SNB-19): 4940 nM | GI50 (SNB-75): 1250 nM | CC50 (SNB-75): 5150 nM | GI50 (U-251): 1160 nM | LC50 (U-251): 5770 nM | MIC (Staphylococcus aureus): 4 µg/mL
